Data: US8426408B2, “Pyrimidine inhibitors of kinases” (AbbVie Inc., priority 2009, dated 2013)
pIC50, pKi: −log10 of the molar value.

Legend:
[1] = target: T1, Aurora B (Homo sapiens, UniProt Q96GD4); test: Aurora B enzyme inhibition (time-resolved fluorescence, histone H3 peptide); assay type: biochemical; settings: 1 mM ATP
T1 construct: Active Aurora B enzyme (recombinant residues 1-344)
Outline: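 IC50s came from an exponential fit of inhibition against inhibitor concentration, with phosphorylation read as the 665/615 nm time-resolved fluorescence ratio after EDTA stop using Eu-anti-phospho-H3 and SA-APC. The 1 h reaction used Aurora B 1-344 plus GST-INCENP, biotin-histone H3 1-21 peptide and 1 mM ATP in pH 7.4 HEPES buffer.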

[2] = target: T2, KDR (Homo sapiens, UniProt P35968); test: KDR HTRF in vitro kinase assay; assay type: biochemical; parameters: purified enzyme (His6-KDR 789-1354, MW 63 kD); His6 (N); settings: 1 mM ATP; read-out: KDR enzyme inhibition data (Ki)
Outline: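 His6-KDR 789-1354 (7 ng/well) with 0.5 μM biotinylated peptide substrate and 1 mM ATP in HEPES pH 7.1, MgCl2/MnCl2, 60 min at room temperature. EDTA-quenched, detected by streptavidin-XL-665 plus Eu-kryptate anti-phosphotyrosine HTRF after 3 h; IC50 from 620/665 nm ratio.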
Target sequence in this assay (P35968 789-1354): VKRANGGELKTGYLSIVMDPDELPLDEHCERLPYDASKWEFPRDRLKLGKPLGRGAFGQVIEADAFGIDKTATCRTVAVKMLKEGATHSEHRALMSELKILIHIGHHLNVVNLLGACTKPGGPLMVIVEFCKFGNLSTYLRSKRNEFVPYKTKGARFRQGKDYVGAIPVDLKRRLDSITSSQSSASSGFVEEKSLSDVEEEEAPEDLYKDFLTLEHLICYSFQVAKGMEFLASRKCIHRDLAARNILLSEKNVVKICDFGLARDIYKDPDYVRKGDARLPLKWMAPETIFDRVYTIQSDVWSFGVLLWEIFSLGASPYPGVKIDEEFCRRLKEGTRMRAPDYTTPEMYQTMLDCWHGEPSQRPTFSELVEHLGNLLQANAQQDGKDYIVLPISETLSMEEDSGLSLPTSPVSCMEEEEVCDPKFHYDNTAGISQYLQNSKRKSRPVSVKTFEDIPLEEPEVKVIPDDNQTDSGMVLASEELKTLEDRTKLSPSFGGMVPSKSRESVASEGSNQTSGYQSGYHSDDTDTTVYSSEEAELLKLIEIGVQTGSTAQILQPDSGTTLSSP

[3] = tested on: NCI-H1299 cells; test: Induction of polyploidy in H1299; assay type: cell-based, Human; settings: NCI-H1299, 48 hours
Method: To determine the induction of polyploidy in H1299 cells, NCI-H1299 were seeded (4K/well) into 96-well culture plates (tissue culture grade, black, flat-clear bottom) and incubated overnight to produce cell-to-plate adherence. Inhibitors at varying concentrations were added into duplicate wells containing cells and culture media (RPMI 1640, 10% fetal calf serum) and incubated at 37 C for 48 hours. The plates were then washed with PBS and the adherent cells fixed by incubating with 3% formalin for 1 hour. After washing four times with PBS, the cells were then stained with Hoechst and subjected to fluorescent (360 i/460e) microscopic high content analysis to determine the effect of inhibitors on nuclear size. Polyploid cells (≧4N) were defined as those having nuclear area>750μ^2. Potency was expressed as the concentration of inhibitor necessary to induce polyploidy in 15% of cells (EC15) and was calculated from least squares analysis of the log dose-response.

[4] = target: T3, Aurora A (Homo sapiens, UniProt O14965); test: Aurora A enzyme inhibition (time-resolved fluorescence, STK substrate-2); assay type: biochemical; settings: 1 mM ATP
T3 sequence (O14965 1-403): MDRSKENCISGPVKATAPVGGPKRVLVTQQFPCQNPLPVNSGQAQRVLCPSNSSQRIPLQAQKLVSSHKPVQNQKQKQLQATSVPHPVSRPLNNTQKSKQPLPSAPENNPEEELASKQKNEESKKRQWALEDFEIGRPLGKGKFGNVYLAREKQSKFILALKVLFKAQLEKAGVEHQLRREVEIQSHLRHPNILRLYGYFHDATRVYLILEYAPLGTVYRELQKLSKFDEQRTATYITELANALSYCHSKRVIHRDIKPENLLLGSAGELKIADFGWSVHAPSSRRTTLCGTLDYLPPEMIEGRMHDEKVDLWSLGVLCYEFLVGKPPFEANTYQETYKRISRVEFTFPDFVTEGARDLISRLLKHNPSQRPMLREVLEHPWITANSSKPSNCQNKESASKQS
Outline: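 Phosphorylation of biotinylated STK substrate-2 at 1 mM ATP, 1 h, Hepes buffer pH 7.4 (MgCl2, sodium orthovanadate, Triton X-100). After EDTA quench, 665/615 nm time-resolved fluorescence ratio read via europium anti-phospho antibody and SA-XL665; IC50 from exponential fit versus inhibitor concentration.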

[5] = target: T2, KDR; test: KDR cellular assay (KDR receptor phosphorylation ELISA); assay type: cell-based; parameters: expressed in transfected cells; host or cells: 3T3 (embryonic mouse) cells; settings: KDR transfected 3T3 (embryonic mouse) cells, VEGF stimulated; read-out: IC50 inhibition of KDR phosphorylation
Outline: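 Phospho-KDR measured by capture ELISA (anti-KDR coat, biotinylated detection, streptavidin-HRP, 450 nm) in lysates of KDR-expressing 3T3 mouse fibroblasts. Cells saw compound 20 min at 37° C before 10 min VEGF challenge (100 ng/ml solution); IC50 from non-linear regression of half-log dose series.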
Target sequence in this assay (P35968 20-1356): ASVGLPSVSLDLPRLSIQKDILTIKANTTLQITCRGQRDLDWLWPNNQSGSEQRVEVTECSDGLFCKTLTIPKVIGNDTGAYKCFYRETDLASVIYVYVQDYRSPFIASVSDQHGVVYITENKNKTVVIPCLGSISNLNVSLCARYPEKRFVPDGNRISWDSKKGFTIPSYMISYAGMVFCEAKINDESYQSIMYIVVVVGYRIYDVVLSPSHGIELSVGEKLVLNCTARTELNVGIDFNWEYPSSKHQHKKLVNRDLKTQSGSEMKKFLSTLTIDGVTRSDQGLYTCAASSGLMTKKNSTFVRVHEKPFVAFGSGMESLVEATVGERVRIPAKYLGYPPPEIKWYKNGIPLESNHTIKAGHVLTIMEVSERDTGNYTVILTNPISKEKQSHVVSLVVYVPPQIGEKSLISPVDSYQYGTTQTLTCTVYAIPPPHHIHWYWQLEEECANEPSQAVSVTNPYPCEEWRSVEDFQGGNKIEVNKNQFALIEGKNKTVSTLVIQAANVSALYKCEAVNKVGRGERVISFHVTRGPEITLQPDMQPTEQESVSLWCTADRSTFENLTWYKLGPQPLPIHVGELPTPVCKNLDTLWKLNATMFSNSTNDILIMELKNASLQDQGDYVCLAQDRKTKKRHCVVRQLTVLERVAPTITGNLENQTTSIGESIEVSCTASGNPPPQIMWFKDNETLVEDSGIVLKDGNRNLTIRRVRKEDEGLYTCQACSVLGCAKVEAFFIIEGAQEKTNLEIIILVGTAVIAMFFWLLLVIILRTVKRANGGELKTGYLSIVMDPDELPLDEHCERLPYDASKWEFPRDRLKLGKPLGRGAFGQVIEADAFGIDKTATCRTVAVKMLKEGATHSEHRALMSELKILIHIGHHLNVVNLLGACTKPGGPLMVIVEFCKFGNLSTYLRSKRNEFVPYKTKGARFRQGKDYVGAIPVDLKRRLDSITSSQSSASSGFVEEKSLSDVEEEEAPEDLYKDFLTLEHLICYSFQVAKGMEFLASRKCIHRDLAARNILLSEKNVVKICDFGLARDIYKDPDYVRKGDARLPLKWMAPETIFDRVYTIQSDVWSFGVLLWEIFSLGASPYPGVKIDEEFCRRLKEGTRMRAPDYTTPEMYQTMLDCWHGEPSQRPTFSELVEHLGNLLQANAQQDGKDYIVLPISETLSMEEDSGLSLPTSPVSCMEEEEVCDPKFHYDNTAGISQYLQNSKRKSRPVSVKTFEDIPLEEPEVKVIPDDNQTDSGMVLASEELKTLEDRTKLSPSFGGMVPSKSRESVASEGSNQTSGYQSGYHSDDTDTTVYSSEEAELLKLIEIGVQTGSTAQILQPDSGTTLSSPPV

T1 sequence (Q96GD4 whole entry, the tested form may be a part): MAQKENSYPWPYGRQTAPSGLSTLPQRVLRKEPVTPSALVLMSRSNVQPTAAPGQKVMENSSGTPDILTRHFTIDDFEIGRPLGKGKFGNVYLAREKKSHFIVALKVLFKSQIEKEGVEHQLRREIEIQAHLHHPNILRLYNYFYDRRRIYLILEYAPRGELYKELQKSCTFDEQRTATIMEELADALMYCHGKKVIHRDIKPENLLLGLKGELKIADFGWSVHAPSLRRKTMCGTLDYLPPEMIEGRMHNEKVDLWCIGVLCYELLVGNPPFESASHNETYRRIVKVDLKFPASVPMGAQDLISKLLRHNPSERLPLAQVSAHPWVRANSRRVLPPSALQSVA
T1 sequence (Q9NQS7 826-918 partner limits assumed): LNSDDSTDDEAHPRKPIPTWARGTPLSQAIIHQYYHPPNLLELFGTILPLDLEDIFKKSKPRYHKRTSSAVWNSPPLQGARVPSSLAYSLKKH

pKi [1] | pKi [2] | pKi [4] | pIC50 [5] | Compound | EC15 ([3]; Homo sapiens, read-out: EC15 (concentration of inhibitor necessary to induce polyploidy in 15% of cells)) [nM] | EC15 (concentration of inhibitor necessary to induce polyploidy in 15% of cells) [3]
6.00 to 7.00 | < 5.30 | 5.30 to 6.00 | – | Cn1cc(Nc2nccc(NC3C4C=CC(C4)C3C(N)=O)n2)cn1 (mixture of isomers) [Example 2, (1S,2S,3R,4R)-3-({2-[(1-methyl-1H-pyrazol-4-yl)amino]pyrimidin-4-yl}amino)bicyclo[2.2.1]hept-5-ene-2-carboxamide and (1R,2R,3S,4S)-3-({2-[(1-methyl-1H-pyrazol-4-yl)amino]pyrimidin-4-yl}amino)bicyclo[2.2.1]hept-5-ene-2-carboxamide] | < 100 | –
> 7.00 | 6.00 to 7.00 | 6.00 to 7.00 | – | NC(=O)[C@@H]1[C@H](Nc2nc(Nc3cn[nH]c3)ncc2F)[C@H]2C=C[C@@H]1C2.NC(=O)[C@H]1[C@@H](Nc2nc(Nc3cn[nH]c3)ncc2F)[C@@H]2C=C[C@H]1C2 (mixture of isomers) [Example 5, (1S,2S,3R,4R)-3-{[5-fluoro-2-(1H-pyrazol-4-ylamino)pyrimidin-4-yl]amino}bicyclo[2.2.1]hept-5-ene-2-carboxamide and (1R,2R,3S,4S)-3-{[5-fluoro-2-(1H-pyrazol-4-ylamino)pyrimidin-4-yl]amino}bicyclo[2.2.1]hept-5-ene-2-carboxamide] | – | B (“B” represents an EC15 of between 0.1 μM and 1 μM)
> 7.00 | 6.00 to 7.00 | > 7.00 | – | CCn1cc(Nc2ncc(F)c(N[C@@H]3[C@H](C(N)=O)[C@H]4C=C[C@@H]3C4)n2)cn1.CCn1cc(Nc2ncc(F)c(N[C@H]3[C@@H](C(N)=O)[C@@H]4C=C[C@H]3C4)n2)cn1 (mixture of isomers) [Example 8, (1S,2S,3R,4R)-3-({2-[(1-ethyl-1H-pyrazol-4-yl)amino]-5-fluoropyrimidin-4-yl}amino)bicyclo[2.2.1]hept-5-ene-2-carboxamide and (1R,2R,3S,4S)-3-({2-[(1-ethyl-1H-pyrazol-4-yl)amino]-5-fluoropyrimidin-4-yl}amino)bicyclo[2.2.1]hept-5-ene-2-carboxamide] | – | A (“A” represents an EC15 of less than 0.1 μM)
> 7.00 | < 5.30 | 6.00 to 7.00 | – | CNC(=O)[C@@H]1[C@H](Nc2nc(Nc3cnn(C)c3)ncc2F)[C@H]2C=C[C@@H]1C2.CNC(=O)[C@H]1[C@@H](Nc2nc(Nc3cnn(C)c3)ncc2F)[C@@H]2C=C[C@H]1C2 (mixture of isomers) [Example 9, (1S,2S,3R,4R)-3-({5-fluoro-2-[(1-methyl-1H-pyrazol-4-yl)amino]pyrimidin-4-yl}amino)-N-methylbicyclo[2.2.1]hept-5-ene-2-carboxamide and (1R,2R,3S,4S)-3-({5-fluoro-2-[(1-methyl-1H-pyrazol-4-yl)amino]pyrimidin-4-yl}amino)-N-methylbicyclo[2.2.1]hept-5-ene-2-carboxamide] | – | A (“A” represents an EC15 of less than 0.1 μM)
> 7.00 | 6.00 to 7.00 | > 7.00 | – | NC(=O)[C@@H]1[C@H](Nc2nc(Nc3cnn(CCO)c3)ncc2F)[C@H]2C=C[C@@H]1C2.NC(=O)[C@H]1[C@@H](Nc2nc(Nc3cnn(CCO)c3)ncc2F)[C@@H]2C=C[C@H]1C2 (mixture of isomers) [Example 11, (1S,2S,3R,4R)-3-[(5-fluoro-2-{[1-(2-hydroxyethyl)-1H-pyrazol-4-yl]amino}pyrimidin-4-yl)amino]bicyclo[2.2.1]hept-5-ene-2-carboxamide and (1R,2R,3S,4S)-3-[(5-fluoro-2-{[1-(2-hydroxyethyl)-1H-pyrazol-4-yl]amino}pyrimidin-4-yl)amino]bicyclo[2.2.1]hept-5-ene-2-carboxamide] | – | A (“A” represents an EC15 of less than 0.1 μM)
> 7.00 | 6.00 to 7.00 | 6.00 to 7.00 | – | Cn1cc(Nc2ncc(F)c(N[C@@H]3[C@H]4CC[C@H](C4)[C@@H]3C(N)=O)n2)cn1.Cn1cc(Nc2ncc(F)c(N[C@H]3[C@@H]4CC[C@@H](C4)[C@H]3C(N)=O)n2)cn1 (mixture of isomers) [Example 12, (1R,2S,3R,4S)-3-({5-fluoro-2-[(1-methyl-1H-pyrazol-4-yl)amino]pyrimidin-4-yl}amino)bicyclo[2.2.1]heptane-2-carboxamide and (1S,2R,3S,4R)-3-({5-fluoro-2-[(1-methyl-1H-pyrazol-4-yl)amino]pyrimidin-4-yl}amino)bicyclo[2.2.1]heptane-2-carboxamide] | – | B (“B” represents an EC15 of between 0.1 μM and 1 μM)
> 7.00 | 6.00 to 7.00 | > 7.00 | – | CCn1cc(Nc2ncc(F)c(N[C@@H]3[C@H]4CC[C@H](C4)[C@@H]3C(N)=O)n2)cn1.CCn1cc(Nc2ncc(F)c(N[C@H]3[C@@H]4CC[C@@H](C4)[C@H]3C(N)=O)n2)cn1 (mixture of isomers) [Example 13, (1R,2S,3R,4S)-3-({2-[(1-ethyl-1H-pyrazol-4-yl)amino]-5-fluoropyrimidin-4-yl}amino)bicyclo[2.2.1]heptane-2-carboxamide and (1S,2R,3S,4R)-3-({2-[(1-ethyl-1H-pyrazol-4-yl)amino]-5-fluoropyrimidin-4-yl}amino)bicyclo[2.2.1]heptane-2-carboxamide] | – | B (“B” represents an EC15 of between 0.1 μM and 1 μM)
> 7.00 | 5.30 to 6.00 | 6.00 to 7.00 | – | NC(=O)[C@@H]1[C@H]2CC[C@H](C2)[C@@H]1Nc1nc(Nc2cnn(CCO)c2)ncc1F.NC(=O)[C@H]1[C@@H]2CC[C@@H](C2)[C@H]1Nc1nc(Nc2cnn(CCO)c2)ncc1F (mixture of isomers) [Example 14, (1R,2S,3R,4S)-3-[(5-fluoro-2-{[1-(2-hydroxyethyl)-1H-pyrazol-4-yl]amino}pyrimidin-4-yl)amino]bicyclo[2.2.1]heptane-2-carboxamide and (1S,2R,3S,4R)-3-[(5-fluoro-2-{[1-(2-hydroxyethyl)-1H-pyrazol-4-yl]amino}pyrimidin-4-yl)amino]bicyclo[2.2.1]heptane-2-carboxamide] | – | B (“B” represents an EC15 of between 0.1 μM and 1 μM)
> 7.00 | > 7.00 | > 7.00 | 6.00 to 7.00 | CC1(C)[C@H]2C[C@H](C(N)=O)[C@H](Nc3nc(Nc4cnn(C5CCNCC5)c4)ncc3Cl)[C@@H]1C2 [Example 191, (1R,2R,3S,5R)-2-[(5-chloro-2-{[1-(piperidin-4-yl)-1H-pyrazol-4-yl]amino}pyrimidin-4-yl)amino]-6,6-dimethylbicyclo[3.1.1]heptane-3-carboxamide] | – | –
> 7.00 | > 7.00 | > 7.00 | > 7.00 | (1S,2S,3R,4R)-3-[(5-bromo-2-{[1-(3-fluoro-4-methoxybenzyl)-1H-pyrazol-4-yl]amino}pyrimidin-4-yl)amino]bicyclo[2.2.1]hept-5-ene-2-carboxamide [Example 193] | – | –
